# US10851108B2, “Substituted bicyclic heterocyclic compounds” (BRISTOL-MYERS SQUIBB COMPANY, priority 2016, dated 2020)
# Key:
# Assay type in all cases: cell-based
# [1] = molecular target: hROMK (human Kir1.1) (Homo sapiens (Human), UniProt P48048); assay: Thallium Flux Assay; settings: CHO T-Rex hROMK stable cell line, 10-point concentration response; read-out: hROMK Th+ Flux IC50
# Procedure, shortened: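 CHO T-Rex cells, doxycycline-induced (0.5 μg/ml) one day before, FluxOR dye-loaded; compounds 30 min, then Tl+ stimulus (final 3 mM Tl2SO4, 0.15 mM K2SO4) with ouabain in chloride-free buffer. Fluorescence 488/525 nm for 90 s; IC50 from 10-point curve; DMSO 0.5 or 1%.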
# [2] = molecular target: hROMK (Homo sapiens (Human), UniProt P48048); assay: ROMK Manual Patch Clamp Assay; settings: whole-cell manual patch clamp, hROMK expressing cells; read-out: hROMK EP IC50
# Procedure: ROMK Manual Patch Clamp Assay
# Cell culture conditions: Cells were maintained in conditions similar to those for Thallium flux assay. hROMK channel expression was induced by adding 0.6 μg/ml of Doxycycline 16-24 hrs prior to the experiments. On the day of experiment, the cells were dissociated using Versene, resuspended in growth media and plated onto coverslips 15 minutes prior to use.
# Electrophysiology: The coverslip plated with cells was placed in the experiment chamber perfused with bath solution composed of (in mM): 135 NaCl, 5 KCl, 2 CaCl2, 1 MgCl2, 10 HEPES, 5 Glucose (pH 7.4). Patch pipettes with resistance between 2-5 Megaohms, when filled with a solution containing (in mM): 135 KCl, 1 EGTA, 1 MgCl2, 10 HEPES, 2 Na2ATP (pH 7.3), were used to form gigaseals. The cells were voltage clamped at −75 mV in whole-cell configuration using an Axopatch 200b or Multiclamp 700b (Molecular Devices) amplifier controlled by pClamp Software (Molecular Devices). The current was recorded by applying a voltage step to −120 mV every 10 seconds. For each compound, 4-6 concentrations were applied for 3-8 minutes in a successive manner starting with the lowest concentration. At the end of the experiment, the cells were perfused with bath solution containing 2 mM Ba^2+ to isolate the contribution of hROMK current.
# Data analysis: Raw current values (5 traces each for control, different compound concentration and Ba^2+ treatment groups) were exported from Clampfit into Microsoft Excel where the current remaining after application of Ba^2+ was subtracted from raw current to obtain hROMK specific current. These hROMK current values (average of 5 traces for each group) were then imported into a custom made template to generate a concentration response curve, which was subsequently fitted with a four parameter equation to calculate the IC50 value of the test compound.
# The data in Table 4 is reported with two significant figures.
# [3] = molecular target: hERG (Homo sapiens (Human), UniProt Q12809); assay: hERG Manual Patch Clamp Assay; settings: human, HEK 293 cells stably expressing hERG channels; for inhibition at 1 µM: pH 7.4, 1 μM, read-out: hERG EP IC50 (% Inhibition at 1 μM); for inhibition at 3 µM: pH 7.4, 3 uM, read-out: hERG EP % Inhibition at 3 uM; for inhibition at 10 µM: pH 7.4, 10 uM, read-out: hERG EP % Inhibition at 10 uM
# Procedure: hERG Manual Patch Clamp Assay
# hERG electrophysiology assay: The experimental compounds were assessed for hERG activity on HEK 293 cells stably expressing hERG channels using patch clamp technique. Coverslips plated with hERG expressing cells were placed in the experimental chamber and were perfused with a solution composed of (in mM): 140 NaCl, 4 KCl, 1.8 CaCl2, 1 MgCl2, 10 Glucose, 10 HEPES (pH 7.4, NaOH) at room temperature. Borosilicate patch pipettes had tip resistances of 2-4 Mohms when filled with an internal solution containing: 130 KCl, 1 MgCl2, 1 CaCl2, 10 EGTA, 10 HEPES, 5 ATP-K2 (pH 7.2, KOH). The cells were clamped at −80 mV in whole cell configuration using an Axopatch 200B (Axon instruments, Union City, Calif.) patch clamp amplifier controlled by pClamp (Axon instruments) software. Upon formation of a gigaseal, the following voltage protocol was repeatedly (0.05 Hz) applied to record tail currents: depolarization step from −80 mV to +20 mV for 2 seconds followed by a hyperpolarization step to −65 mV (3 seconds) to elicit tail currents. Compounds were applied after stabilization of tail current. First, tail currents were recorded in presence of extracellular solution alone (control) and subsequently, in extracellular solution containing increasing compound concentrations. Each compound concentration was applied for 2-5 minutes. The percentage inhibition at each concentration was calculated as reduction in peak tail current with respect to the peak tail current recorded in the presence of control solution. Data analysis was performed in a custom made template. The percent inhibitions at different concentrations were plotted to obtain a concentration response curve, which was subsequently fitted with a four parameter equation to calculate hERG IC50 value.
# A lower hERG % Inhibition value indicates less inhibition of the hERG current
# Chain of hERG (Q12809 whole entry): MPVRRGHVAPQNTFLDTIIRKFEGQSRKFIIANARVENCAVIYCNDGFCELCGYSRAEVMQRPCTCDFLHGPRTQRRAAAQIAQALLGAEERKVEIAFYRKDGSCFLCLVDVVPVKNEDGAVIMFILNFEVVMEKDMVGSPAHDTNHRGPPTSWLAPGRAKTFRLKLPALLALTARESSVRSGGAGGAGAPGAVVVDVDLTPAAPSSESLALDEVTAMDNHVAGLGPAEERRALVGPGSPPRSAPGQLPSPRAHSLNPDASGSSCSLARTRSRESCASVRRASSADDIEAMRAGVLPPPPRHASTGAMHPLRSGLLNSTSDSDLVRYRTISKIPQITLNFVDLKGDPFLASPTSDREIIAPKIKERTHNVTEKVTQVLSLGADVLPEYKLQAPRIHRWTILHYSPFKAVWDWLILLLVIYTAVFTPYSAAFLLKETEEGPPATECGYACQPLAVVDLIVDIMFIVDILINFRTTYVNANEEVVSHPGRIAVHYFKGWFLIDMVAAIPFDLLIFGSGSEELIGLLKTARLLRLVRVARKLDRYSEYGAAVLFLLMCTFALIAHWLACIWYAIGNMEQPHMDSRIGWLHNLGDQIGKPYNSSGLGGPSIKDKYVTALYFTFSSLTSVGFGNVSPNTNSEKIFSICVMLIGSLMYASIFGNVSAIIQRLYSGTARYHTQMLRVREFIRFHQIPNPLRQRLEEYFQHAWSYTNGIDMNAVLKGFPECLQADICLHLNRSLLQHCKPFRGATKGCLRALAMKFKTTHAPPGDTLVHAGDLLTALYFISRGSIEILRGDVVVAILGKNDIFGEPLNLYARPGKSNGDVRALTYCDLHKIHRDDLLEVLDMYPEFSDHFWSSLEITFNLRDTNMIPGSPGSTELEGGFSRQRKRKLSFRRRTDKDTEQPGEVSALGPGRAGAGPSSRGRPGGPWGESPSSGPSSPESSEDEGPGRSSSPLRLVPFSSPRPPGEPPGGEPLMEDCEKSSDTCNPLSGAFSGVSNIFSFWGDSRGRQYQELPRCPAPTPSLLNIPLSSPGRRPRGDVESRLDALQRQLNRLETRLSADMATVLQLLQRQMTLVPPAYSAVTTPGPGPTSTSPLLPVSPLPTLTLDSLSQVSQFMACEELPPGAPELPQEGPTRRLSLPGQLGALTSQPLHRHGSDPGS
# Chain of hROMK (human Kir1.1) (P48048 whole entry): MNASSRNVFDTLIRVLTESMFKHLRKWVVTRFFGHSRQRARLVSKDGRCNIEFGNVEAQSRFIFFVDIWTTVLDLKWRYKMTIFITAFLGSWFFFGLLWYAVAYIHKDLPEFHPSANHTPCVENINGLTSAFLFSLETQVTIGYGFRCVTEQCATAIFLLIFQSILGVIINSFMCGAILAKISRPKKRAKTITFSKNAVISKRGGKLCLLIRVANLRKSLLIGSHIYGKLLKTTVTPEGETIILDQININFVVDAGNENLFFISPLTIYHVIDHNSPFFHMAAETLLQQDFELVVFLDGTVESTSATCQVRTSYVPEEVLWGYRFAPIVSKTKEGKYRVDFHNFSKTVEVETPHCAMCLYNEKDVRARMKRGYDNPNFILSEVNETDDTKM
# Chain of hROMK (P48048 whole entry): as above
Structure (SMILES),IC50 [1] [nM],IC50 [2] [nM],inhibition at 1 µM [3] [%],inhibition at 3 µM [3] [%],inhibition at 10 µM [3] [%]
"Cc1c(C(O)CN2CCc3nc(-n4cc(C#N)c5ncccc54)ncc3C2)ccc2c1COC2=O (single isomer, unassigned) [Example 68-I, 1-(6-(2-hydroxy-2-(4-methyl-1-oxo-1,3-dihydroisobenzofuran-5-yl)ethyl)-5,6,7,8-tetrahydropyrido[4,3-d]pyrimidin-2-yl)-1H-pyrrolo[3,2-b]pyridine-3-carbonitrile]",29,23,22,54,86
"Cc1c(C(O)CN2CCc3nc(-n4cc(C#N)cn4)ncc3C2)ccc2c1COC2=O (single isomer, unassigned) [Example 56-I, 1-(6-(2-hydroxy-2-(4-methyl-1-oxo-1,3-dihydroisobenzofuran-5-yl)ethyl)-5,6,7,8-tetrahydropyrido[4,3-d]pyrimidin-2-yl)-1H-pyrazole-4-carbonitrile]",44,12,35,65,82
"Cc1c(C(O)CN2CCc3nc(-n4ccc5c(C#N)cncc54)ncc3C2)ccc2c1COC2=O (single isomer, unassigned) [Example 42-I, 1-(6-(2-hydroxy-2-(4-methyl-1-oxo-1,3-dihydroisobenzofuran-5-yl)ethyl)-5,6,7,8-tetrahydropyrido[4,3-d]pyrimidin-2-yl)-1H-pyrrolo[2,3-c]pyridine-4-carbonitrile]",70,34,41,–,–
"N#Cc1ccc(Nc2ccc3c(c2)CCN(Cc2ccc4c(c2)COC4=O)C3)cc1F [Example 4, 2-fluoro-4-((2-((1-oxo-1,3-dihydroisobenzofuran-5-yl)methyl)-1,2,3,4-tetrahydroisoquinolin-6-yl)amino)benzonitrile]",29,31,94,–,–
